From patent US20100130738A1 (priority 2007, published 2010)

Legend:
[1] = target: T1, PDE3A catalytic domain (PDE3Acat) (Homo sapiens, UniProt Q14432); assay: Phosphodiesterase inhibitory activity, recombinant PDE3Acat, [3H]cAMP; type: biochemical; conditions: 30° C. 20 minutes, read-out: IC50 (μmol/L) PDE3
T1 construct: isolate the cDNA of a PDE3A catalytic domain; made in house; host or cells: Sf9 insect cells (baculovirus, Bac-to-Bac / Gateway)

[2] = target: T2, PDE4Bcat (Homo sapiens, UniProt Q07343); assay: Phosphodiesterase inhibitory activity, recombinant PDE4Bcat, [3H]cAMP; type: biochemical; conditions: 30° C. 20 minutes, read-out: IC50 (μmol/L) PDE4
T2 construct: made in house; host or cells: Sf9 insect cells (baculovirus, Bac-to-Bac / Gateway)
T2 sequence (Q07343 330-659 limits assumed): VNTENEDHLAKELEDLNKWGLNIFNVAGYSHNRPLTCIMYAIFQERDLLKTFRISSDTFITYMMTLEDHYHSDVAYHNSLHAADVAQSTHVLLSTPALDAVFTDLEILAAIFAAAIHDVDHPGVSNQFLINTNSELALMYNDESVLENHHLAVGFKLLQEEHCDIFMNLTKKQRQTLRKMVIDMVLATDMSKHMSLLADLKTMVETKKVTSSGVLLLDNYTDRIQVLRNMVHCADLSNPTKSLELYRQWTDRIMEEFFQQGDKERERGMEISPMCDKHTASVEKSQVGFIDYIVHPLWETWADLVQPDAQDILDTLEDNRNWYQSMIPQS

[3] = tested on: histamine-induced bronchoconstriction in guinea pigs; assay: Histamine-induced bronchoconstriction reaction in guinea pigs; type: in vivo, guinea pig; conditions: Cavia porcellus, iv, 0.5 min, compound 0.3 mg/kg i.v., measured 30 seconds after administration, histamine 12.5 μg/kg i.v., read-out: Inhibition rate (histamine-induced bronchoconstriction)
Method: Guinea pigs were anesthetized with pentobarbital (30 mg/kg, i.p.). A cannula for intravenous administration, a cannula for collecting blood and measuring blood pressure, and a tracheal cannula were inserted into the left external jugular vein, right internal carotid artery, and trachea, respectively. The guinea pigs were maintained on artificial respiration under conditions of 60 times/min and 10 mL/kg/stroke. The overflowing air from the side branch of the tracheal cannula was measured by a bronchospasm transducer (Ugo-Basile) and recorded on a computer via Power Lab (ADInstruments Japan). The guinea pigs were immobilized with gallamine (10 mg/kg, i.v.), and histamine (12.5 μg/kg, i.v.) was administered at 10-minute intervals. After the histamine-induced bronchoconstriction became stable, the compound (0.3 mg/kg, i.v.) was administered. The histamine-induced bronchoconstriction reaction was measured 30 seconds after the compound administration to examine the bronchoconstriction inhibitory activity of the compound. The bronchoconstriction was recorded as the airflow value, and the results were represented by the ratio of the maximum value of the histamine-induced airflow 30 seconds after administration to the maximum value of the airflow before administration. Also, the test compounds dissolved in DMSO were used. Further, the indications were as follows: inhibition rate≧90% (+++), 90%>inhibition rate≧80% (++), and 80%>inhibition rate≧60% (+).

[4] = tested on: LPS acute inflammation model in rats; assay: LPS acute inflammation model in rats (total leukocytes in BALF); type: in vivo, rat; conditions: 10 mg/kg orally one hour before LPS inhalation, BALF 3 hours after LPS inhalation
Method: 10 mg/kg of the compounds were orally administered to rats one hour before inhalation of a lipopolysaccharide from E. coli serotype 055:B5 (LPS), and the rats were made to inhale 50 ml of the LPS solution nebulized using a nebulizer for 30 minutes. Then, 3 hours after LPS inhalation, the rats were euthanized with 20% urethane (5 ml/rat, i.p.). 5 ml of physiological saline for bronchoalveolar lavage was injected into the bronchial tubes and alveoli through the airway, and the bronchial tubes and alveoli were washed three times using a 5 mL syringe. This operation was repeated twice, and the solution was collected as bronchoalveolar lavage fluid (BALF). The collected BALF was centrifuged at 1200 rpm and 4° C. for 10 minutes (Hirtachi; himac CR 5 DL). The pellet was re-suspended in 10 ml of a 0.1% bovine serum albumin-physiological saline, and an equivalent amount of Turk's solution was added thereto to stain leukocytes. The total number of leukocytes was counted under a microscope to calculate the inhibition rate. Further, the indications were as follows: inhibition rate≧80% (+++), 80%≧inhibition rate≧60% (++), and 60%>inhibition rate≧40% (+).

T1 sequence (Q14432 674-1093 limits assumed): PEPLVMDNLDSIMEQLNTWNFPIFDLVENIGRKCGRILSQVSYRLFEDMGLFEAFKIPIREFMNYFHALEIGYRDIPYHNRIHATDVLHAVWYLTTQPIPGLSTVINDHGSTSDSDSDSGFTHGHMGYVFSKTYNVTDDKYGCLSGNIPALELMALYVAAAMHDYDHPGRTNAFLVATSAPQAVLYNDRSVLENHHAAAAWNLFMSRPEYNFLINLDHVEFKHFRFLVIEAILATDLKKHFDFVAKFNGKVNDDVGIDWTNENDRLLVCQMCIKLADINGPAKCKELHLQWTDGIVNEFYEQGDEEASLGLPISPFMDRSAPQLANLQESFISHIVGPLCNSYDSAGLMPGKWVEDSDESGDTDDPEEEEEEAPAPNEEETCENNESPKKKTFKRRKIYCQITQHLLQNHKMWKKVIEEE

| Compound | IC50 [1] [µmol/L] | IC50 [2] [µmol/L] | melting point [°C] | inhibition in vivo at 0.3 mg/kg [3] [%] | Inhibition rate (total number of leukocytes in BALF) [4] | Inhibition rate (total number of leukocytes in BALF) ([4]; 10 mg/kg) |
| --- | --- | --- | --- | --- | --- | --- |
| COc1ccc(C2=NN(CCCCOc3ccc(C4=NNC(=O)CC4C)c(F)c3F)C(=O)C2(C)C)c2cc(C(F)(F)F)sc12 (centres unmarked) [Example 224, 2-[4-[2,3-Difluoro-4-(4-methyl-6-oxo-1,4,5,6-tetrahydropyridazin-3-yl)phenoxy]butyl]-5-(7-methoxy-2-trifluoromethylbenzo[b]thiophen-4-yl)-4,4-dimethyl-2,4-dihydro-pyrazol-3-one] | < 0.01 | 0.01 to 0.1 | 137 to 138 | – | – | – |
| COc1ccc(C2=NN(CCCCOc3ccc(C4=NNC(=O)CC4)c(F)c3F)C(=O)C2(C)C)c2cc(C(F)(F)F)sc12 [Example 222, 2-[4-[2,3-Difluoro-4-(6-oxo-1,4,5,6-tetrahydropyridazin-3-yl)phenoxy]butyl]-5-(7-methoxy-2-trifluoromethylbenzo[b]thiophen-4-yl)-4,4-dimethyl-2,4-dihydro-pyrazol-3-one] | < 0.01 | 0.1 to 1 | 176 to 177 | – | – | – |
| COc1ccc(C2=NN(CCCCOc3ccc(C4=NNC(=O)C4(C)C)c(F)c3F)C(=O)C2(C)C)c2ccc(C)nc12 [Example 197, 2-[4-[2,3-Difluoro-4-(4,4-dimethyl-5-oxo-4,5-dihydro-1H-pyrazol-3-yl)phenoxy]butyl]-5-(8-methoxy-2-methylquinolin-5-yl)-4,4-dimethyl-2,4-dihydro-pyrazol-3-one] | < 0.01 | 0.01 to 0.1 | – | ≥ 90 | +++ (inhibition rate≧80%) | – |
| CCc1ccc2c(C3=NN(CCCCOc4ccc(C5=NNC(=O)CC5C)c(F)c4F)C(=O)C3(C)C)ccc(OC)c2n1 (centres unmarked) [Example 209, 5-(2-Ethyl-8-methoxyquinolin-5-yl)-2-[4-[2,3-difluoro-4-(4-methyl-6-oxo-1,4,5,6-tetrahydropyridazin-3-yl)phenoxy]butyl]-4,4-dimethyl-2,4-dihydro-pyrazol-3-one] | < 0.01 | 0.01 to 0.1 | – | ≥ 90 | +++ (inhibition rate≧80%) | – |
| CCc1ccc2c(C3=NN(CCCCOc4ccc(C5=NNC(=O)CC5C)cc4F)C(=O)C3(C)C)ccc(OC)c2n1 (single isomer, unassigned; (-)) [Example 207, (−)-5-(2-ethyl-8-methoxyquinolin-5-yl)-2-[4-[2-fluoro-4-(4-methyl-6-oxo-1,4,5,6-tetrahydropyridazin-3-yl)phenoxy]butyl]-4,4-dimethyl-2,4-dihydro-pyrazol-3-one] | < 0.01 | 0.01 to 0.1 | – | ≥ 90 | + (60%>inhibition rate≧40%) | – |
| CCc1ccc2c(C3=NN(CCCCOc4ccc(C5=NNC(=O)CC5C)c(F)c4F)C(=O)C3(C)C)ccc(OC)c2n1 (single isomer, unassigned; (+)) [Example 210, (+)-5-(2-Ethyl-8-methoxyquinolin-5-yl)-2-[4-[2,3-difluoro-4-(4-methyl-6-oxo-1,4,5,6-tetrahydropyridazin-3-yl)phenoxy]butyl]-4,4-dimethyl-2,4-dihydro-pyrazol-3-one] | < 0.01 | 0.01 to 0.1 | – | – | – | + (60%>inhibition rate≧40%) |
| CCc1ccc2c(C3=NN(CCCCOc4ccc(C5=NNC(=O)CC5C)cc4F)C(=O)C3(C)C)ccc(OC)c2n1 (centres unmarked) [Example 205, 5-(2-Ethyl-8-methoxyquinolin-5-yl)-2-[4-[2-fluoro-4-(4-methyl-6-oxo-1,4,5,6-tetrahydropyridazin-3-yl)phenoxy]butyl]-4,4-dimethyl-2,4-dihydro-pyrazol-3-one] | < 0.01 | 0.01 to 0.1 | – | ≥ 90 | +++ (inhibition rate≧80%) | – |
| CCc1ccc2c(C3=NN(CCCCOc4ccc(C5=NNC(=O)CC5C)c(F)c4F)C(=O)C3(C)C)ccc(OC)c2n1 (single isomer, unassigned; (-)) [Example 211, (−)-5-(2-ethyl-8-methoxyquinolin-5-yl)-2-[4-[2,3-difluoro-4-(4-methyl-6-oxo-1,4,5,6-tetrahydropyridazin-3-yl)phenoxy]butyl]-4,4-dimethyl-2,4-dihydro-pyrazol-3-one] | < 0.01 | 0.01 to 0.1 | – | ≥ 90 | – | ++ (80%≧inhibition rate≧60%) |
| CCc1ccc2c(C3=NN(CCCCOc4ccc(C5=NNC(=O)CC5C)cc4F)C(=O)C3(C)C)ccc(OC)c2n1 (single isomer, unassigned; (+)) [Example 206, (+)-5-(2-Ethyl-8-methoxyquinolin-5-yl)-2-[4-[2-fluoro-4-(4-methyl-6-oxo-1,4,5,6-tetrahydropyridazin-3-yl)phenoxy]butyl]-4,4-dimethyl-2,4-dihydro-pyrazol-3-one] | 0.1 to 1 | 0.01 to 0.1 | – | – | + (60%>inhibition rate≧40%) | – |
| COc1ccc(C2=NN(CCCCOc3ccc(C4=NNC(=O)CC4C)c(F)c3F)C(=O)C2(C)C)c2[nH]c(C(F)(F)F)nc12 (centres unmarked) [Example 221, 2-[4-[2,3-Difluoro-4-(4-methyl-6-oxo-1,4,5,6-tetrahydropyridazin-3-yl)phenoxy]butyl]-5-(4-methoxy-2-trifluoromethyl-1H-benzo[d]imidazol-7-yl)-4,4-dimethyl-2,4-dihydro-pyrazol-3-one] | < 0.01 | < 0.01 | – | ≥ 90 | – | – |
| COc1ccc(C2=NN(CCCCOc3ccc(C4=NNC(=O)C4(C)C)c(F)c3F)C(=O)C2(C)C)c2cc(C(F)(F)F)sc12 [Example 223, 2-[4-[2,3-Difluoro-4-(4,4-dimethyl-5-oxo-4,5-dihydro-1H-pyrazol-3-yl)phenoxy]butyl]-5-(7-methoxy-2-trifluoromethylbenzo[b]thiophen-4-yl)-4,4-dimethyl-2,4-dihydro-pyrazol-3-one] | 0.01 to 0.1 | 0.01 to 0.1 | 167 to 168 | – | – | – |
| COc1ccc(C2=NN(CCCCOc3ccc(C4=NNC(=O)C4(C)C)c(F)c3F)C(=O)C2(C)C)n2cc(C(F)(F)F)nc12 [Example 236, 2-[4-[2,3-Difluoro-4-(4,4-dimethyl-5-oxo-4,5-dihydro-1H-pyrazol-3-yl)phenoxy]butyl]-5-(8-methoxy-2-trifluoromethylimidazo[1,2-a]pyridin-5-yl)-4,4-dimethyl-2,4-dihydro-pyrazol-3-one] | 0.01 to 0.1 | < 0.01 | – | 60 to 80 | – | – |
